Data taken from patent US10870619B2 (CJ CHEILJEDANG CORPORATION, priority 2016, dated 2020).
Read-outs that look alike come from different tables or passages of the source.

Settings: crystals obtained by the crystallization process of the respective example (pH adjustment, coagulant, pH readjustment, cooling rate vary)
Description: As used herein, the term “bulk density” refers to the density measured based on the volume including voids generated between particles when powder is filled into a container. In particular, the density of powder which is measured after treating the powder by tapping a cylinder filled with the powder with a constant force so as to make the powder within the cylinder dense is called tapped bulk density (hereinafter, “BD”).

CSCC[C@H](N)C(=O)O [Example 6, L-methionine]
BD (tapped bulk density) of the obtained L-methionine crystals: 580 g/L
BD (tapped bulk density) of the obtained L-methionine crystals (listed as Ex. 6): 580 g/L

CSCC[C@H](N)C(=O)O [Example 11, L-methionine]
BD (tapped bulk density) of the obtained L-methionine crystals: 550 g/L
BD (tapped bulk density) of the obtained L-methionine crystals (listed as Ex. 11): 550 g/L

CSCC[C@H](N)C(=O)O [Comparative Example 8, L-methionine, reference compound]
BD (tapped bulk density) of the obtained L-methionine crystals: 450 g/L
BD (tapped bulk density) of the obtained L-methionine crystals (listed as Comp. Ex. 8): 450 g/L

CSCC[C@H](N)C(=O)O [Example 1, L-methionine]
BD (tapped bulk density) of the obtained L-methionine crystals: 370 g/L
BD (tapped bulk density) of the obtained L-methionine crystals (listed as Ex. 1): 370 g/L

CSCC[C@H](N)C(=O)O [Example 2, L-methionine]
BD (tapped bulk density) of the obtained L-methionine crystals: 350 g/L
BD (tapped bulk density) of the obtained L-methionine crystals (listed as Ex. 2): 350 g/L

CSCC[C@H](N)C(=O)O [Example 12, L-methionine]
BD (tapped bulk density) of the obtained L-methionine crystals: 560 g/L
BD (tapped bulk density) of the obtained L-methionine crystals (listed as Ex. 12): 560 g/L

CSCC[C@H](N)C(=O)O [Example 3, L-methionine]
BD (tapped bulk density) of the obtained L-methionine crystals: 610 g/L
BD (tapped bulk density) of the obtained L-methionine crystals (listed as Ex. 3): 610 g/L

CSCC[C@H](N)C(=O)O [Example 10, L-methionine]
BD (tapped bulk density) of the obtained L-methionine crystals: 580 g/L
BD (tapped bulk density) of the obtained L-methionine crystals (listed as Ex. 10): 580 g/L

CSCC[C@H](N)C(=O)O [Example 17, L-methionine]
BD (tapped bulk density) of the obtained L-methionine crystals: 690 g/L
BD (tapped bulk density) of the obtained L-methionine crystals (listed as Ex. 17): 690 g/L

CSCC[C@H](N)C(=O)O [Comparative Example 1, L-methionine, reference compound]
BD (tapped bulk density) of the obtained L-methionine crystals: 190 g/L
BD (tapped bulk density) of the obtained L-methionine crystals (listed as Comp. Ex. 1): 190 g/L

CSCC[C@H](N)C(=O)O [Example 9, L-methionine]
BD (tapped bulk density) of the obtained L-methionine crystals: 560 g/L
BD (tapped bulk density) of the obtained L-methionine crystals (listed as Ex. 9): 560 g/L

CSCC[C@H](N)C(=O)O [Example 15, L-methionine]
BD (tapped bulk density) of the obtained L-methionine crystals: 500 g/L
BD (tapped bulk density) of the obtained L-methionine crystals (listed as Ex. 15): 500 g/L

CSCC[C@H](N)C(=O)O [Example 13, L-methionine]
BD (tapped bulk density) of the obtained L-methionine crystals: 530 g/L
BD (tapped bulk density) of the obtained L-methionine crystals (listed as Ex. 13): 530 g/L

CSCC[C@H](N)C(=O)O [Example 7, L-methionine]
BD (tapped bulk density) of the obtained L-methionine crystals: 570 g/L
BD (tapped bulk density) of the obtained L-methionine crystals (listed as Ex. 7): 570 g/L

CSCC[C@H](N)C(=O)O [Comparative Example 11, L-methionine, reference compound]
BD (tapped bulk density) of the obtained L-methionine crystals (listed as Comp. Ex. 11): 410 g/L

CSCC[C@H](N)C(=O)O [Comparative Example 5, L-methionine, reference compound]
BD (tapped bulk density) of the obtained L-methionine crystals: 490 g/L
BD (tapped bulk density) of the obtained L-methionine crystals (listed as Comp. Ex. 5): 490 g/L

CSCC[C@H](N)C(=O)O [Example 21, L-methionine]
BD (tapped bulk density) of the obtained L-methionine crystals: 800 g/L
BD (tapped bulk density) of the obtained L-methionine crystals (listed as Ex. 21): 800 g/L

CSCC[C@H](N)C(=O)O [Example 14, L-methionine]
BD (tapped bulk density) of the obtained L-methionine crystals: 600 g/L
BD (tapped bulk density) of the obtained L-methionine crystals (listed as Ex. 14): 600 g/L

CSCC[C@H](N)C(=O)O [Example 20, L-methionine]
BD (tapped bulk density) of the obtained L-methionine crystals: 760 g/L
BD (tapped bulk density) of the obtained L-methionine crystals (listed as Ex. 20): 760 g/L

CSCC[C@H](N)C(=O)O [Comparative Example 12, L-methionine, reference compound]
BD (tapped bulk density) of the obtained L-methionine crystals: 660 g/L
BD (tapped bulk density) of the obtained L-methionine crystals (listed as Comp. Ex. 12): 660 g/L

CSCC[C@H](N)C(=O)O [Comparative Example 3, L-methionine, reference compound]
BD (tapped bulk density) of the obtained L-methionine crystals: 500 g/L
BD (tapped bulk density) of the obtained L-methionine crystals (listed as Comp. Ex. 3): 500 g/L

CSCC[C@H](N)C(=O)O [Comparative Example 7, L-methionine, reference compound]
BD (tapped bulk density) of the obtained L-methionine crystals: 510 g/L
BD (tapped bulk density) of the obtained L-methionine crystals (listed as Comp. Ex. 7): 510 g/L

CSCC[C@H](N)C(=O)O [Comparative Example 2, L-methionine, reference compound]
BD (tapped bulk density) of the obtained L-methionine crystals: 520 g/L
BD (tapped bulk density) of the obtained L-methionine crystals (listed as Comp. Ex. 2): 520 g/L

CSCC[C@H](N)C(=O)O [Example 8, L-methionine]
BD (tapped bulk density) of the obtained L-methionine crystals: 570 g/L
BD (tapped bulk density) of the obtained L-methionine crystals (listed as Ex. 8): 570 g/L

CSCC[C@H](N)C(=O)O [Example 5, L-methionine]
BD (tapped bulk density) of the obtained L-methionine crystals: 590 g/L
BD (tapped bulk density) of the obtained L-methionine crystals (listed as Ex. 5): 590 g/L

CSCC[C@H](N)C(=O)O [Comparative Example 13, L-methionine, reference compound]
BD (tapped bulk density) of the obtained L-methionine crystals: 400 g/L
BD (tapped bulk density) of the obtained L-methionine crystals (listed as Comp. Ex. 13): 400 g/L

CSCC[C@H](N)C(=O)O [Example 22, L-methionine]
BD (tapped bulk density) of the obtained L-methionine crystals: 700 g/L
BD (tapped bulk density) of the obtained L-methionine crystals (listed as Ex. 22): 700 g/L

CSCC[C@H](N)C(=O)O [Comparative Example 10, L-methionine, reference compound]
BD (tapped bulk density) of the obtained L-methionine crystals: 630 g/L
BD (tapped bulk density) of the obtained L-methionine crystals (listed as Comp. Ex. 10): 630 g/L

CSCC[C@H](N)C(=O)O [Comparative Example 6, L-methionine, reference compound]
BD (tapped bulk density) of the obtained L-methionine crystals: 450 g/L
BD (tapped bulk density) of the obtained L-methionine crystals (listed as Comp. Ex. 6): 450 g/L

CSCC[C@H](N)C(=O)O [Example 4, L-methionine]
BD (tapped bulk density) of the obtained L-methionine crystals: 590 g/L
BD (tapped bulk density) of the obtained L-methionine crystals (listed as Ex. 4): 590 g/L

CSCC[C@H](N)C(=O)O [Comparative Example 4, L-methionine, reference compound]
BD (tapped bulk density) of the obtained L-methionine crystals: 500 g/L
BD (tapped bulk density) of the obtained L-methionine crystals (listed as Comp. Ex. 4): 500 g/L

CSCC[C@H](N)C(=O)O [Example 18, L-methionine]
BD (tapped bulk density) of the obtained L-methionine crystals: 730 g/L
BD (tapped bulk density) of the obtained L-methionine crystals (listed as Ex. 18): 730 g/L

CSCC[C@H](N)C(=O)O [Example 16, L-methionine]
BD (tapped bulk density) of the obtained L-methionine crystals: 480 g/L
BD (tapped bulk density) of the obtained L-methionine crystals (listed as Ex. 16): 480 g/L

CSCC[C@H](N)C(=O)O [Example 19, L-methionine]
BD (tapped bulk density) of the obtained L-methionine crystals: 750 g/L
BD (tapped bulk density) of the obtained L-methionine crystals (listed as Ex. 19): 750 g/L

CSCC[C@H](N)C(=O)O [Comparative Example 9, L-methionine, reference compound]
BD (tapped bulk density) of the obtained L-methionine crystals: 460 g/L
BD (tapped bulk density) of the obtained L-methionine crystals (listed as Comp. Ex. 9): 460 g/L
